These are literature values, as cited in US5480983A, “Adenosine derivatives, preparation methods and pharmaceutical compositions containing them” (Laboratoires UPSA, priority 1992, dated 1996).

SMILES strings stand for the structures.

One series concerns platelet aggregation. The following applies: as described in Journal of Medicinal Chemistry; cited from earlier work.
For series [1] the following is noted: as specified in Biochemical Pharmacology; cited from earlier work.

For the compound `OC[C@H]1O[C@@H](n2cnc3c(NCCc4c[nH]c5ccccc45)ncnc32)[C@H](O)[C@@H]1O` [derivative A, N-6-[2-(indol-3-yl)ethyl]adenosine], the “platelet aggregation inhibiting activity” value in the series on platelet aggregation was “platelet aggregation inhibiting activity”.

As for `COc1ccc2[nH]cc(CCNc3ncnc4c3ncn4[C@@H]3O[C@H](CO)[C@@H](O)[C@H]3O)c2c1` [derivative B], the antilipolytic activity entry in series [1] is “antilipolytic activity”.
